Holding throughout (assay type): functional
Common to all, as to settings: read-out: ED50 (the source's name)

Experiment [1] concerns HCT-15. Description: Cytotoxicity against human HCT15 cells.
In experiment [2] the test system is XF498. Description: Cytotoxicity against human XF498 cells.
In experiment [3] the test system is SK-OV-3. In words: Cytotoxicity against human SKOV3 cells.
Experiment [4] deals with SK-MEL-2. Description: Cytotoxicity against human SK-MEL-2 cells.
Experiment [5] deals with A549. Description: Cytotoxicity against human A549 cells.

Converted amounts (≈) assume the structure as drawn.

For `COc1cccc2c1C(=O)c1c(O)c3c(c(O)c1C2=O)C[C@@](O)(C(=O)CO)C[C@@H]3O[C@H]1C[C@H](N)[C@H](O)[C@H](C)O1` [DOXORUBICIN], the EC50 was found to be 0.07 µg/mL (≈ 0.129 µM) in experiment [1]; 0.15 µg/mL (≈ 0.276 µM) in experiment [2]; 0.15 µg/mL (≈ 0.276 µM) in experiment [3]; 0.03 µg/mL (≈ 0.0552 µM) in experiment [4]; 0.03 µg/mL (≈ 0.0552 µM) in experiment [5].

These data come from ChEMBL document CHEMBL1150681, “New acetylenic acids from the marine sponge Stelletta species” (2003).
